No end group written: not given here. *: point of attachment. 5FAM = O=C1OC2(c3ccc(O)cc3Oc3cc(O)ccc32)c2ccc(C(=O)*)cc21
B1: fluorescein-labeled pWT derivative (P5 Gly substituted with a 5-carboxyfluorescein-modified lysine) (peptide)
peptide: AHHGK(5FAM)WTTK
modifications: also: 5-carboxyfluorescein-modified Lys at P5 (replacing Gly)

Experiments:
HLA-A*03:02 = HLA-A*03:02 (Homo sapiens, UniProt P04439, E176V/L180Q); test: Differential scanning fluorimetry, peptide/HLA complex; format: binding; details: DSF, SYPRO Orange, 15 μM protein, HBS-EP pH 7.4, representative melt curve (n=3 technical replicates)
Description: Melting temperatures of WT and Mut PIK3α peptide/HLA-A*03:01 complexes were measured via differential scanning fluorimetry on a StepOnePlus Real-Time PCR System (Applied Biosystems), as previously described[68]. In brief, a 96-well plate was loaded with mixtures of 2 μl of 100× SYPRO Orange Protein Gel Stain (Invitrogen) and 18 μl of target protein at 15 μM in HBS-EP buffer (10 mM HEPES, 150 mM NaCl, 3 mM NaEDTA, 0.005% surfactant P20, pH 7.4). The excitation and emission wavelengths for the measurement were 587 nm and 607 nm, respectively. Temperature was scanned from 20 °C to 95 °C at a rate of 1 °C min^−1. Melting temperatures were determined by fitting the 1st derivative of each melting curve to a bi-Gaussian function in OriginPro.

[1] = system: peptide-pulsed HLA-A*03:01+ target cells; test: Intracellular TNFα of TCR-transduced T cells with peptide-pulsed HLA-A*03:01+ targets; format: cell-based
[2] = target: HLA-A*03:01 (heavy chain with β2-microglobulin) (human); test: fluorescence polarisation; fluorescence anisotropy; dissociation of fluorescein-labeled peptide from 100 nM purified peptide/HLA-A*03:01 complex with 100 μM unlabeled peptide; 37 °C; 20 mM NaH2PO4, 75 mM NaCl, pH 7.4; t1/2 = 0.693/koff of the slowest rate

Molecule | t1/2 of the peptide/HLA complex [2] | also measured
AHHGGWTTK [pWT, wild-type PI3Kα counterpart peptide] |  | Tm (melting temperature of peptide/HLA complex) (HLA-A*03:02): 38.7 oC
IVFMGWTTK [peptide derived from transmembrane protein 87B (TM87B), position 407-415] |  | activation of T cells by peptide (in words) [1]: failed to activate TCR4-transduced T cells
fluorescein-labeled pMut derivative (P5 Gly substituted with a 5-carboxyfluorescein-modified lysine) (peptide) | 5.5 h | 
B1 | 0.078 h | 
